Measurements taken from patent publication US10815238B2, “Antimicrobial compounds and methods of making and using the same” (BIOVERSYS AG, priority 2013, dated 2020).

test system: Eschericia coli (E. coli) strain ATCC25922; test: Standard microdilution assay, MIC against E. coli ATCC25922; assay type: cell-based; conditions: Escherichia coli; E. coli strain ATCC25922, standard microdilution assay; cutoff 16 micrograms/mL; read-out: MIC E. Coli
Procedure, shortened: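 Scoring as + or − used a 16 micrograms/mL cutoff on minimum inhibitory concentrations. These came from CLSI-standard microdilution, quality-controlled with reference strains tested in the same run.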

MIC, < 16 µg/mL:
C[C@H](N)CCCc1cc(-c2cc3cn(-c4ccc([C@H](C)NCCCN(C)C(=N)N)cc4)c(=O)nc3[nH]2)cc(C(F)(F)F)c1 [Compound 211]
C=CCN(CCCN[C@@H](C)c1ccc(-n2cc3cc(-c4cc(CCC[C@H](C)N)cc(Cl)c4F)[nH]c3nc2=O)cc1)C(=N)N [Compound 212]
C=CCNCCCN[C@@H](C)c1ccc(-n2cc3cc(-c4cc(CCC[C@H](C)N)cc(Cl)c4F)[nH]c3nc2=O)cc1 [Compound 213]
C[C@H](N)CCCc1cc(-c2cc3cn(-c4ccc([C@H](C)NCCCNC(=N)N)cc4)c(=O)nc3[nH]2)c(F)c(C(F)(F)F)c1F [Compound 214]
C=CCN(CCCN[C@@H](C)c1ccc(-n2cc3cc(-c4cc(CCC[C@H](C)N)cc(C(F)(F)F)c4)[nH]c3nc2=O)cc1)C(=N)N [Compound 215]
C=CCNCCCN[C@@H](C)c1ccc(-n2cc3cc(-c4cc(CCC[C@H](C)N)cc(C(F)(F)F)c4)[nH]c3nc2=O)cc1 [Compound 216]
CCc1c(F)c(CCC[C@H](C)N)cc(-c2cc3cn(-c4ccc([C@H](C)NCCCN)cc4)c(=O)nc3[nH]2)c1F [Compound 217]
CCc1c(F)c(CCC[C@H](C)N)cc(-c2cc3cn(-c4ccc([C@H](C)NCCCNC(=N)N)cc4)c(=O)nc3[nH]2)c1F [Compound 218]
C[C@H](N)CCCc1cc(Cl)c(F)c(-c2cc3cn(-c4ccc([C@H](C)N[C@@H](C)CCNC(=N)N)cc4)c(=O)nc3[nH]2)c1 [Compound 219]
C[C@H](N)CCCc1cc(-c2cc3cn(-c4ccc([C@H](C)N[C@@H](C)CCNC(=N)N)cc4)c(=O)nc3[nH]2)cc(C(F)(F)F)c1 [Compound 220]
C[C@H](N)CCCc1cc(Cl)c(F)c(-c2cc3cn(-c4ccc([C@H](C)NCC[C@H](C)N)cc4)c(=O)nc3[nH]2)c1 [Compound 221]
C[C@H](N)CCCc1cc(Cl)c(F)c(-c2cc3cn(-c4ccc([C@H](C)NCC[C@H](C)NC(=N)N)cc4)c(=O)nc3[nH]2)c1 [Compound 222]
C[C@H](N)CCCc1cc(OC(F)(F)F)c(F)c(-c2cc3cn(-c4ccc([C@H](C)NCC[C@H](C)N)cc4)c(=O)nc3[nH]2)c1 [Compound 223]
C[C@H](N)CCCc1cc(OC(F)(F)F)c(F)c(-c2cc3cn(-c4ccc([C@H](C)NCC[C@H](C)NC(=N)N)cc4)c(=O)nc3[nH]2)c1 [Compound 224]
C[C@H](N)CCCc1cc(Cl)c(F)c(-c2cc3cn(-c4ccc([C@H](C)N[C@H](C)CCNC(=N)N)cc4)c(=O)nc3[nH]2)c1 [Compound 225]
C[C@H](N)CCCc1cc(-c2cc3cn(-c4ccc([C@H](C)N[C@H](C)CCNC(=N)N)cc4)c(=O)nc3[nH]2)cc(C(F)(F)F)c1 [Compound 226]
CC[C@H](NCCCNC(=N)N)c1ccc(-n2cc3cc(-c4cc(CCC[C@H](C)N)cc(OC(F)(F)F)c4F)[nH]c3nc2=O)cc1 [Compound 227]
C[C@H](N)CCCc1cc(OC(F)(F)F)c(F)c(-c2cc3cn(-c4ccc(CN[C@H](C)CCNC(=N)N)cc4)c(=O)nc3[nH]2)c1 [Compound 228]
C[C@H](N)CCCc1cc(Cl)c(F)c(-c2cc3cn(-c4ccc(C[C@@H](CCCN)NC(=N)N)cc4)c(=O)nc3[nH]2)c1 [Compound 229]
C[C@H](N)CCCc1cc(Cl)c(F)c(-c2cc3cn(-c4ccc(C[C@H](N)CCCNC(=N)N)cc4)c(=O)nc3[nH]2)c1 [Compound 230]
C[C@H](N)CCCc1cc(OC(F)(F)F)c(F)c(-c2cc3cn(-c4ccc(C[C@H](N)CCCNC(=N)N)cc4)c(=O)nc3[nH]2)c1 [Compound 231]
C[C@H](N)CCCc1cc(OC(F)(F)F)c(F)c(-c2cc3cn(-c4ccc([C@H](C)N[C@@H](C)CCNC(=N)N)cc4)c(=O)nc3[nH]2)c1 [Compound 232]
C[C@H](N)CCCc1cc(OC(F)(F)F)c(F)c(-c2cc3cn(-c4ccc([C@H](C)N[C@H](C)CCNC(=N)N)cc4)c(=O)nc3[nH]2)c1 [Compound 233]
C[C@H](N)CCCc1cc(OC(F)(F)F)c(F)c(-c2cc3cn(-c4ccc([C@H](N)CCCCNC(=N)N)cc4)c(=O)nc3[nH]2)c1 [Compound 234]
C[C@H](N)CCCc1cc(-c2cc3cn(-c4ccc([C@H](N)CCCCNC(=N)N)cc4)c(=O)nc3[nH]2)cc(C(F)(F)F)c1 [Compound 235]
C=C[C@H](CCN[C@@H](C)c1ccc(-n2cc3cc(-c4cc(CCC[C@H](C)N)cc(Cl)c4F)[nH]c3nc2=O)cc1)NC(=N)N [Compound 236]
C=C[C@H](CCN[C@@H](C)c1ccc(-n2cc3cc(-c4cc(CCC[C@H](C)N)cc(OC(F)(F)F)c4F)[nH]c3nc2=O)cc1)NC(=N)N [Compound 237]
C=C[C@H](CCNCc1ccc(-n2cc3cc(-c4cc(CCC[C@H](C)N)cc(OC(F)(F)F)c4F)[nH]c3nc2=O)cc1)NC(=N)N [Compound 238]
C[C@H](N)CCCc1cc(Cl)c(F)c(-c2cc3cn(-c4ccc([C@H](C)NCC[C@@H](CCCO)NC(=N)N)cc4)c(=O)nc3[nH]2)c1 [Compound 239]
C[C@H](N)CCCc1cc(OC(F)(F)F)c(F)c(-c2cc3cn(-c4ccc([C@H](C)NCC[C@@H](CCCO)NC(=N)N)cc4)c(=O)nc3[nH]2)c1 [Compound 240]
C[C@H](N)CCCc1cc(Cl)c(F)c(C#Cc2cn(-c3ccc([C@H](C)NCCCNC(=N)N)cc3)c(=O)nc2N)c1 [Compound 241]
C[C@H](NCCCNC(=N)N)c1ccc(-n2cc3cc(-c4cc(CCC[C@@H](N)CO)cc(C(F)(F)F)c4)[nH]c3nc2=O)cc1 [Compound 242]
C[C@H](NCCCNC(=N)N)c1ccc(-n2cc3cc(-c4cc(CCC[C@@H](N)CO)cc(OC(F)(F)F)c4F)[nH]c3nc2=O)cc1 [Compound 243]
C[C@H](N)CCCc1cc(Cl)c(F)c(-c2cc3cn(-c4ccc([C@H](C)NCC[C@H](CCO)NC(=N)N)cc4)c(=O)nc3[nH]2)c1 [Compound 244]
C[C@H](N)CCCc1cc(OC(F)(F)F)c(F)c(-c2cc3cn(-c4ccc([C@H](C)NCC[C@H](CCO)NC(=N)N)cc4)c(=O)nc3[nH]2)c1 [Compound 245]
C[C@H](N)CCCc1cc(Cl)c(F)c(-c2cc3c([nH]2)NC(=O)N(c2ccc([C@H](C)NCCCNC(=N)N)cc2)C3)c1 [Compound 246]
C[C@H](N)CCCc1cc(Cl)c(F)c(-c2cc3cn(-c4ccc([C@H](C)NCC[C@@H](CCO)NC(=N)N)cc4)c(=O)nc3[nH]2)c1 [Compound 247]
C[C@H](N)CCCc1cc(OC(F)(F)F)c(F)c(-c2cc3cn(-c4ccc([C@H](C)NCC[C@@H](CCO)NC(=N)N)cc4)c(=O)nc3[nH]2)c1 [Compound 248]
C[C@H](N)CCCc1cc(Cl)c(F)c(-c2cc3cn(-c4ccc(CN[C@H](CO)CCNC(=N)N)cc4)c(=O)nc3[nH]2)c1 [Compound 249]
C[C@H](N)CCCc1cc(OC(F)(F)F)c(F)c(-c2cc3cn(-c4ccc(CN[C@H](CO)CCNC(=N)N)cc4)c(=O)nc3[nH]2)c1 [Compound 250]
C=CC[C@H](CCN[C@@H](C)c1ccc(-n2cc3cc(-c4cc(CCC[C@H](C)N)cc(Cl)c4F)[nH]c3nc2=O)cc1)NC(=N)N [Compound 251]
